According to patent publication US9074014B2 (Ipsen Pharma S.A.S., priority 2008, dated 2015):
*1 amine or outer side, *2 acyl side, *3 side chain or, on linkers, in order; H or OH if unused. Where a SMILES comes first, the peptide text is derived from it. Where no end group is shown, it is not given here. [ ]: non-standard residue; d: D form. The star is where a group is joined. Desaminotyrosyl = O=C(CCc1ccc(O)cc1)*; X2 = O=C([C@@H]1CC(O)CN1[*:1])[*:2]; Myristoyl = CCCCCCCCCCCCCC(=O)*; Ac6c = NC1(C(=O)O)CCCCC1; Nle = CCCC[C@H](N)C(=O)O; Orn = NCCC[C@H](N)C(=O)O; X1 = CCCN1C(=O)CC(*)C1=O; Ac5c = NC1(C(=O)O)CCCC1; Aib = CC(C)(N)C(=O)O

Columns and labels:
[1] = Human plasma half-life assay; format: in vitro ADME; conditions: human plasma, 37° C., LC-MS; read-out: Human Plasma T½ (converted)
[2] = Rat plasma half-life assay; format: in vitro ADME; conditions: rat plasma, 37° C., LC-MS; for half-life at 0.1 mg/ml: read-out: Rat Plasma T½ (converted)

Row | Compound | half-life at 0.1 mg/ml [1] [h] | half-life at 0.1 mg/ml [2] [h] | half-life [1] [h] | half-life ([2]; read-out: Rat Plasma T½) [h]
1 | CC[C@H](C)[C@H](NC(=O)[C@H](CO)NC(=O)[C@H](Cc1ccc(O)cc1)NC(=O)[C@H](CC(=O)O)NC(=O)[C@H](CO)NC(=O)[C@@H](NC(=O)[C@H](Cc1ccccc1)NC(=O)[C@@H](NC(=O)C(C)(C)NC(=O)[C@H](CCC(=O)O)NC(=O)C(C)(C)NC(=O)[C@@H](N)Cc1ccc(O)cc1)[C@@H](C)O)[C@@H](C)CC)C(=O)N[C@@H](C)C(=O)N[C@@H](CCSC)C(=O)N[C@@H](CC(=O)O)C(=O)N[C@@H](CCCCN)C(=O)N[C@H](C(=O)N[C@@H](Cc1c[nH]cn1)C(=O)N[C@@H](CCC(N)=O)C(=O)N[C@@H](CCC(N)=O)C(=O)N[C@@H](CC(=O)O)C(=O)N[C@@H](Cc1ccccc1)C(=O)N[C@H](C(=O)N[C@@H](CC(N)=O)C(=O)N[C@@H](Cc1c[nH]c2ccccc12)C(=O)N[C@@H](CC(C)C)C(=O)N[C@@H](CC(C)C)C(=O)N[C@@H](C)C(=O)N[C@@H](CCC(N)=O)C(=O)N[C@@H](CCCCN)C(N)=O)C(C)C)[C@@H](C)CC [Example 14, (Aib^2, 4)hGIP(1-30)-NH2] | 34.8 | 48 | – | –
2 | CC[C@H](C)[C@H](NC(=O)[C@H](CCCCN)NC(=O)[C@H](CC(=O)O)NC(=O)C1(NC(=O)[C@H](C)NC(=O)[C@@H](NC(=O)C2(NC(=O)[C@H](Cc3ccc(O)cc3)NC(=O)[C@H](CC(=O)O)NC(=O)[C@H](CO)NC(=O)[C@@H](NC(=O)[C@H](Cc3ccccc3)NC(=O)[C@@H](NC(=O)CNC(=O)[C@@H]3CCCCN3C(=O)[C@H](C)NC(=O)[C@@H](N)Cc3ccc(O)cc3)[C@@H](C)O)[C@@H](C)CC)CCCC2)[C@@H](C)CC)CCCCC1)C(=O)N[C@@H](Cc1c[nH]cn1)C(=O)N[C@@H](CCC(N)=O)C(=O)N[C@@H](CCC(N)=O)C(=O)N[C@@H](CC(=O)O)C(=O)N[C@@H](Cc1ccccc1)C(=O)N[C@H](C(=O)N[C@@H](CC(N)=O)C(=O)N[C@@H](Cc1c[nH]c2ccccc12)C(=O)N[C@@H](CC(C)C)C(=O)N[C@@H](CC(C)C)C(=O)N[C@@H](C)C(=O)N[C@@H](CCC(N)=O)C(=O)N[C@@H](CCCCN)C(=O)NCC(=O)N[C@@H](CCCCN)C(=O)N[C@@H](CCCCN)C(=O)N[C@@H](CC(N)=O)C(=O)N[C@@H](CC(=O)O)C(=O)N[C@@H](Cc1c[nH]c2ccccc12)C(=O)N[C@@H](CCCCN)C(=O)N[C@@H](Cc1c[nH]cn1)C(=O)N[C@@H](CC(N)=O)C(=O)N[C@H](C(=O)N[C@H](C(=O)N[C@@H](CCC(N)=O)C(=O)O)[C@@H](C)O)[C@@H](C)CC)C(C)C [Example 83, (hPro^3, A5c^11, A6c^14)hGIP(1-42)-OH] | 32.4 | 1.1 | – | –
3 | CC[C@H](C)[C@H](NC(=O)[C@H](CCCCN)NC(=O)[C@H](CC(=O)O)NC(=O)C1(NC(=O)[C@H](C)NC(=O)[C@@H](NC(=O)C2(NC(=O)[C@H](Cc3ccc(O)cc3)NC(=O)[C@H](CC(=O)O)NC(=O)[C@H](CO)NC(=O)[C@@H](NC(=O)[C@H](Cc3ccccc3)NC(=O)[C@@H](NC(=O)CNC(=O)[C@H](CCC(=O)O)NC(=O)C(C)(C)NC(=O)[C@@H](N)Cc3ccc(O)cc3)[C@@H](C)O)[C@@H](C)CC)CCCC2)[C@@H](C)CC)CCCCC1)C(=O)N[C@@H](Cc1c[nH]cn1)C(=O)N[C@@H](CCC(N)=O)C(=O)N[C@@H](CCC(N)=O)C(=O)N[C@@H](CC(=O)O)C(=O)N[C@@H](Cc1ccccc1)C(=O)N[C@H](C(=O)N[C@@H](CC(N)=O)C(=O)N[C@@H](Cc1c[nH]c2ccccc12)C(=O)N[C@@H](CC(C)C)C(=O)N[C@@H](CC(C)C)C(=O)N[C@@H](C)C(=O)N[C@@H](CCC(N)=O)C(=O)N[C@@H](CCCCN)C(N)=O)C(C)C [Example 48, (Aib^2, A5c^11, A6c^14)hGIP(1-30)-NH2] | > 56 | > 54 | – | –
4 | Y[Aib]EGTF[Ac6c]SDYSIAMDKIHQQDFVNWLLAQKC(X1)KKNDWKHNITQ-OH [Example 90, [Aib^2, A6c^7, Cys(Psu)^31]hGIP(1-42)-OH] | 11.3 | 4.8 | – | –
5 | CCCC[C@H](NC(=O)[C@H](C)NC(=O)[C@@H](NC(=O)[C@H](CO)NC(=O)[C@H](Cc1ccc(O)cc1)NC(=O)[C@H](CC(=O)O)NC(=O)[C@H](CO)NC(=O)C1(NC(=O)[C@H](Cc2ccccc2)NC(=O)[C@@H](NC(=O)CNC(=O)[C@H](CCC(=O)O)NC(=O)C2(NC(=O)[C@@H](N)Cc3ccc(O)cc3)CCCCC2)[C@@H](C)O)CCCCC1)[C@@H](C)CC)C(=O)N[C@@H](CC(=O)O)C(=O)N[C@@H](CCCCN)C(=O)N[C@H](C(=O)N[C@@H](Cc1c[nH]cn1)C(=O)N[C@@H](CCC(N)=O)C(=O)N[C@@H](CCC(N)=O)C(=O)N[C@@H](CC(=O)O)C(=O)N[C@@H](Cc1ccccc1)C(=O)N[C@H](C(=O)N[C@@H](CC(N)=O)C(=O)N[C@@H](Cc1c[nH]c2ccccc12)C(=O)N[C@@H](CC(C)C)C(=O)N[C@@H](CC(C)C)C(=O)N[C@@H](C)C(=O)N[C@@H](CCC(N)=O)C(=O)N[C@@H](CCCCN)C(N)=O)C(C)C)[C@@H](C)CC [Example 36, (A6c^2,7, Nle^14)hGIP(1-30)-NH2] (H-Y[Ac6c]EGTF[Ac6c]SDYSIA[Nle]DKIHQQDFVNWLLAQK-NH2; N-terminus assumed) | 23.7 | 29.2 | – | –
6 | Y[Aib]EGTFISDYS[Ac5c]AMDKIHQQDFVNWLLAQKGKKNDWKHNITQ-OH [Example 7, (Aib^2, A5c^12)hGIP(1-42)-OH] | 37.1 | 5.3 | – | –
7 | Y[Aib]EG[Ac5c]FISDYSIAMDKIHQQDFVNWLLAQKGKKNDWKHNITQ-OH [Example 5, (Aib^2, A5c^5)hGIP(1-42)-OH] | > 48 | 6.1 | – | –
8 | Desaminotyrosyl-AEGTFISDYSI[Aib]MDKIHQQDFVNWLLAQKGKKNDWKHNITQ-OH [Example 101, (4Hppa^1, Aib^13)hGIP(1-42)-OH] | 47.5 | 13.4 | – | –
9 | Y[Aib]EGTF[Ac5c]SDYSIA[Ac6c]DKIHQQDFVNWLLAQKGKKNDWKHNITQ-OH [Example 44, (Aib^2, A5c^7, A6c^14)hGIP(1-42)-OH] | 9.5 | 7.5 | – | –
10 | [Orn](Myristoyl)AEGTF[Ac6c]SDYSIAMDKIHQQDFVNWLLAQKGKKNDWKHNITQ-OH [Example 103, [Orn^1(N—C(O)—(CH2)12—CH3), A6c^7]hGIP(1-42)-OH] | – | – | 6.8 | > 72
11 | CCCC[C@H](NC(=O)C(C)(C)NC(=O)[C@@H](NC(=O)[C@H](CO)NC(=O)[C@H](Cc1ccc(O)cc1)NC(=O)[C@H](CC(=O)O)NC(=O)[C@H](CO)NC(=O)[C@@H](NC(=O)[C@H](Cc1ccccc1)NC(=O)[C@@H](NC(=O)CNC(=O)[C@@H]1CC(O)CN1C(=O)[C@H](C)NC(=O)[C@@H](N)Cc1ccc(O)cc1)[C@@H](C)O)[C@@H](C)CC)[C@@H](C)CC)C(=O)N[C@@H](CC(=O)O)C(=O)N[C@@H](CCCCN)C(=O)N[C@H](C(=O)N[C@@H](Cc1c[nH]cn1)C(=O)N[C@@H](CCC(N)=O)C(=O)N[C@@H](CCC(N)=O)C(=O)N[C@@H](CC(=O)O)C(=O)N[C@@H](Cc1ccccc1)C(=O)N[C@H](C(=O)N[C@@H](CC(N)=O)C(=O)N[C@@H](Cc1c[nH]c2ccccc12)C(=O)N[C@@H](CC(C)C)C(=O)N[C@@H](CC(C)C)C(=O)N[C@@H](C)C(=O)N[C@@H](CCC(N)=O)C(=O)N[C@@H](CCCCN)C(=O)NCC(=O)N[C@@H](CCCCN)C(=O)N[C@@H](CCCCN)C(=O)N[C@@H](CC(N)=O)C(=O)N[C@@H](CC(=O)O)C(=O)N[C@@H](Cc1c[nH]c2ccccc12)C(=O)N[C@@H](CCCCN)C(=O)N[C@@H](Cc1c[nH]cn1)C(=O)N[C@@H](CC(N)=O)C(=O)N[C@H](C(=O)N[C@H](C(=O)N[C@@H](CCC(N)=O)C(=O)O)[C@@H](C)O)[C@@H](C)CC)C(C)C)[C@@H](C)CC (some centres unmarked) [Example 68, (4Hyp^3, Aib^13, Nle^14)hGIP(1-42)-OH] | > 48 | 1.9 | – | –
12 | H-YA[X2]GTFISDYSIA[Ac6c]DKIHQQDFVNWLLAQKGKKNDWKHNITQ-OH [Example 84, (4Hyp^3, A6c^14)hGIP(1-42)-OH] | 3.3 | 1.9 | – | –
13 | YAPGTFISDYSI[Aib]MDKIHQQDFVNWLLAQKGKKNDWKHNITQ [Example 75, (Pro^3, Aib^13)hGIP(1-42)-OH] | 26.1 | 1.9 | – | –
14 | Y[Aib]EGTF[Ac6c]SDYSIA[Nle]DKIHQQDFVNWLLAQKGKKNDWKHNI[Ac6c]Q-OH [Example 29, (Aib^2, A6c^7, 41, Nle^14)hGIP(1-42)-OH] | > 48 | 7.3 | – | –
15 | CC[C@H](C)[C@H](NC(=O)[C@H](CO)NC(=O)[C@H](Cc1ccc(O)cc1)NC(=O)[C@H](CC(=O)O)NC(=O)[C@H](CO)NC(=O)[C@@H](NC(=O)[C@H](Cc1ccccc1)NC(=O)[C@@H](NC(=O)CNC(=O)[C@@H]1Cc2ccccc2CN1C(=O)[C@H](C)NC(=O)[C@@H](N)Cc1ccc(O)cc1)[C@@H](C)O)[C@@H](C)CC)C(=O)N[C@@H](C)C(=O)NC1(C(=O)N[C@@H](CC(=O)O)C(=O)N[C@@H](CCCCN)C(=O)N[C@H](C(=O)N[C@@H](Cc2c[nH]cn2)C(=O)N[C@@H](CCC(N)=O)C(=O)N[C@@H](CCC(N)=O)C(=O)N[C@@H](CC(=O)O)C(=O)N[C@@H](Cc2ccccc2)C(=O)N[C@H](C(=O)N[C@@H](CC(N)=O)C(=O)N[C@@H](Cc2c[nH]c3ccccc23)C(=O)N[C@@H](CC(C)C)C(=O)N[C@@H](CC(C)C)C(=O)N[C@@H](C)C(=O)N[C@@H](CCC(N)=O)C(=O)N[C@@H](CCCCN)C(=O)NCC(=O)N[C@@H](CCCCN)C(=O)N[C@@H](CCCCN)C(=O)N[C@@H](CC(N)=O)C(=O)N[C@@H](CC(=O)O)C(=O)N[C@@H](Cc2c[nH]c3ccccc23)C(=O)N[C@@H](CCCCN)C(=O)N[C@@H](Cc2c[nH]cn2)C(=O)N[C@@H](CC(N)=O)C(=O)N[C@H](C(=O)N[C@H](C(=O)N[C@@H](CCC(N)=O)C(=O)O)[C@@H](C)O)[C@@H](C)CC)C(C)C)[C@@H](C)CC)CCCCC1 [Example 71, (Tic^3, A6c^14)hGIP(1-42)-OH] | > 31 | 4.8 | – | –
16 | YAPGTFISDY[Ac5c]IA[Ac6c]DKIHQQDFVNWLLAQKGKKNDWKHNITQ-OH [Example 102, (Pro^3, A5c^11, A6c^14)hGIP(1-42)-OH] | 54.1 | 1.7 | – | –
